Source: patent US12648944B2, “Masitinib for the treatment of castrate-resistant prostate cancer” (AB SCIENCE, priority 2021, dated 2026)

Tested on: first line metastatic castrate-resistant prostate cancer (mCRPC)
Assay: Phase 3 randomized double blind placebo-controlled study of masitinib in combination with docetaxel (+ prednisone), progression-free survival
Type: in vivo, human
Details: for Median progression-free survival (PFS): masitinib 6 mg/kg/day + docetaxel + prednisone; for Hazard Ratio / Risk Benefit: masitinib vs placebo, each + docetaxel + prednisone
Protocol: A prospective, multicenter, randomized, double blind, placebo-controlled, 2-parallel groups, phase 3 study was conducted to assess the efficacy and safety of masitinib in combination with docetaxel as compared to placebo in combination with docetaxel in first line metastatic castrate-resistant prostate cancer (mCRPC).
The objective of the study was to assess the efficacy and safety of masitinib in combination with docetaxel as compared to docetaxel in combination with placebo in first line metastatic castrate-resistant prostate cancer (mCRPC). Efficacy was assessed based on the progression-free survival (PFS), measured in months.
The patients recruited in the study consist of adult males suffering from prostate cancer who progressed to develop castration-resistant prostate cancer (CRPC) after castration treatment (reduction of androgens (e.g., testosterone, dihydrotestosterone (DHT)) by chemical or surgical means). These patients are considered to be patients in the first line metastatic castration-resistant prostate cancer (mCRPC).
The patients recruited in the study were randomized in two groups with a ratio 1:1: • Group 1: masitinib (6 mg/kg/day)+docetaxel (75 mg/m^2 6 cycles—8 or 10 cycles possible)+prednisone according to usual practice; • Group 2: placebo+docetaxel (75 mg/m^2 6 cycles—8 or 10 cycles possible)+prednisone according to usual practice.
Docetaxel was combined with prednisone as usual practice.
Patients were centrally randomized to one of the two treatment groups by IWRS (Interactive Web Response System) according to minimization method.
Inclusion criteria were: • Patient aged≥18 years old, with histologically or cytologically confirmed metastatic castrate-resistant prostate cancer (medical or surgical castration: androgens deprivation by GnRH agonist or antagonist or patient with surgical castration; hormonal castration confirmed biologically (testosterone<0.5 ng/ml) with one of the following criteria: • If surgical castration is done than there is no requirement to perform testosterone test. • Pre-treated with abiraterone with progressed disease documented, OR • With indication for initiating docetaxel administration (e.g., widespread visceral disease or rapidly progressive disease). • Patient with evidence of progressive metastatic disease. Disease progression at trial enrolment is based on progression in at least one variable as described in the Prostate Cancer Clinical Trials Working Group (PCWG2) definition of response and progression for disease manifestations in prostate cancer (Scher et al. J Clin Oncol. 2008; 26:1148-1159):
• Patient with ECOG≤1 • Patient with adequate organ function: […]

[1] = Halabi prognosis score H > 15 at baseline
[2] = Halabi prognosis score H > 16 at baseline
[3] = Halabi prognosis score H > 17 at baseline
[4] = Halabi prognosis score H > 18 at baseline
[5] = Halabi prognosis score H > 19 at baseline
[6] = Halabi prognosis score H > 20 at baseline
[7] = Halabi prognosis score H > 21 at baseline
[8] = Halabi prognosis score H > 22 at baseline
[9] = Halabi prognosis score H > 27 at baseline
[10] = Halabi prognosis score H > 33 at baseline
[11] = Halabi prognosis score H ≤ 15 at baseline
[12] = Halabi prognosis score H ≤ 16 at baseline
[13] = Halabi prognosis score H ≤ 17 at baseline
[14] = Halabi prognosis score H ≤ 18 at baseline
[15] = Halabi prognosis score H ≤ 19 at baseline
[16] = Halabi prognosis score H ≤ 20 at baseline
[17] = Halabi prognosis score H ≤ 21 at baseline
[18] = Halabi prognosis score H ≤ 22 at baseline
[19] = Halabi prognosis score H ≤ 27 at baseline
[20] = Halabi prognosis score H ≤ 33 at baseline
[21] = baseline ALP > 250 IU/L and H > 18
[22] = baseline ALP > 250 IU/L and H > 19
[23] = baseline ALP > 250 IU/L and H > 20
[24] = baseline ALP > 250 IU/L and H > 21
[25] = baseline ALP > 250 IU/L and H > 22
[26] = baseline ALP > 250 IU/L and H ≤ 20
[27] = baseline ALP > 250 IU/L and H ≤ 21
[28] = baseline ALP > 250 IU/L and H ≤ 22
[29] = baseline ALP equal to or lower than 100 IU/L and H equal to or lower than 18
[30] = baseline ALP equal to or lower than 150 IU/L and H equal to or lower than 18
[31] = baseline ALP equal to or lower than 200 IU/L and H equal to or lower than 18
[32] = baseline ALP ≤ 250 IU/L and H < 21
[33] = baseline ALP ≤ 250 IU/L and H < 22
[34] = baseline ALP ≤ 250 IU/L and H > 18
[35] = baseline ALP ≤ 250 IU/L and H > 19
[36] = baseline ALP ≤ 250 IU/L and H > 20
[37] = baseline ALP ≤ 250 IU/L and H > 21
[38] = baseline ALP ≤ 250 IU/L and H > 22
[39] = baseline ALP ≤ 250 IU/L and H ≤ 18
[40] = baseline ALP ≤ 250 IU/L and H ≤ 19
[41] = baseline ALP ≤ 250 IU/L and H ≤ 20

Cc1ccc(NC(=O)c2ccc(CN3CCN(C)CC3)cc2)cc1Nc1nc(-c2cccnc2)cs1 [MASITINIB, 4-(4-methylpiperazin-1-ylmethyl)-N-[4-methyl-3-(4-pyridin-3ylthiazol-2-ylamino)phenyl]benzamide]
Median progression-free survival (PFS) [1]: 5.5 months | Hazard Ratio [1]: 0.99 | Risk Benefit [1]: 1% | Median progression-free survival (PFS) [2]: 5.5 months | Hazard Ratio [2]: 1.00 | Risk Benefit [2]: 0% | Median progression-free survival (PFS) [3]: 5.5 months | Hazard Ratio [3]: 1.00 | Risk Benefit [3]: 0% | Median progression-free survival (PFS) [4]: 5.5 months | Hazard Ratio [4]: 1.00 | Risk Benefit [4]: 0% | Median progression-free survival (PFS) [5]: 5.4 months | Hazard Ratio [5]: 1.00 | Risk Benefit [5]: 0% | Median progression-free survival (PFS) [6]: 4.9 months | Hazard Ratio [6]: 1.04 | Risk Benefit [6]: −4% | Median progression-free survival (PFS) [7]: 4.9 months | Hazard Ratio [7]: 1.07 | Risk Benefit [7]: −7% | Median progression-free survival (PFS) [8]: 4.9 months | Hazard Ratio [8]: 1.09 | Risk Benefit [8]: −9% | Median progression-free survival (PFS) [9]: 4.8 months | Hazard Ratio [9]: 1.20 | Risk Benefit [9]: −20% | Median progression-free survival (PFS) [10]: 4.1 months | Hazard Ratio [10]: 1.34 | Risk Benefit [10]: −34% | Median progression-free survival (PFS) [11]: 15 months | Hazard Ratio [11]: 0.28 | Risk Benefit [11]: 72% | Median progression-free survival (PFS) [12]: 9.0 months | Hazard Ratio [12]: 0.35 | Risk Benefit [12]: 65% | Median progression-free survival (PFS) [13]: 7.0 months | Hazard Ratio [13]: 0.49 | Risk Benefit [13]: 51% | Median progression-free survival (PFS) [14]: 7.0 months | Hazard Ratio [14]: 0.54 | Risk Benefit [14]: 46% | Median progression-free survival (PFS) [15]: 6.9 months | Hazard Ratio [15]: 0.69 | Risk Benefit [15]: 31% | Median progression-free survival (PFS) [16]: 7.0 months | Hazard Ratio [16]: 0.65 | Risk Benefit [16]: 36% | Median progression-free survival (PFS) [17]: 7.0 months | Hazard Ratio [17]: 0.65 | Risk Benefit [17]: 35% | Median progression-free survival (PFS) [18]: 6.9 months | Hazard Ratio [18]: 0.65 | Risk Benefit [18]: 35% | Median progression-free survival (PFS) [19]: 6.5 months | Hazard Ratio [19]: 0.75 | Risk Benefit [19]: 25% | Median progression-free survival (PFS) [20]: 6.4 months | Hazard Ratio [20]: 0.81 | Risk Benefit [20]: 19% | Median progression-free survival (PFS) (baseline ALP > 100 IU/L): 5.4 months | Hazard Ratio (baseline ALP > 100 IU/L): 1.02 | Median progression-free survival (PFS) (baseline ALP > 150 IU/L): 4.9 months | Hazard Ratio (baseline ALP > 150 IU/L): 1.14 | Median progression-free survival (PFS) (baseline ALP > 200 IU/L): 4.4 months | Hazard Ratio (baseline ALP > 200 IU/L): 1.17 | Median progression-free survival (PFS) [21]: 4.3 months | Hazard Ratio [21]: 1.19 | Median progression-free survival (PFS) [22]: 4.2 months | Hazard Ratio [22]: 1.18 | Median progression-free survival (PFS) [23]: 4.2 months | Hazard Ratio [23]: 1.19 | Median progression-free survival (PFS) [24]: 4.2 months | Hazard Ratio [24]: 1.19 | Median progression-free survival (PFS) [25]: 4.2 months | Hazard Ratio [25]: 1.20 | Median progression-free survival (PFS) (baseline ALP > 250 IU/L and H ≤ 18): 3.4 months | Median progression-free survival (PFS) (baseline ALP > 250 IU/L and H ≤ 19): 9.2 months | Median progression-free survival (PFS) [26]: 13 months | Hazard Ratio [26]: 1.78 | Median progression-free survival (PFS) [27]: 8.3 months | Hazard Ratio [27]: 0.99 | Median progression-free survival (PFS) [28]: 8.3 months | Hazard Ratio [28]: 0.88 | Median progression-free survival (PFS) (baseline ALP > 250 IU/L): 4.2 months | Hazard Ratio (baseline ALP > 250 IU/L): 1.20 | Hazard Ratio [29]: 0.46 | Risk Benefit [29]: 56% | Hazard Ratio [30]: 0.46 | Risk Benefit [30]: 55% | Hazard Ratio [31]: about 0.5 | Risk Benefit [31]: about 50% | Median progression-free survival (PFS) (baseline ALP ≤ 100 IU/L): 9.0 months | Hazard Ratio (baseline ALP ≤ 100 IU/L): 0.53 | Risk Benefit (baseline ALP ≤ 100 IU/L): 47% | Risk Benefit (baseline ALP ≤ 100 IU/L, listed as masitinib): 47% | Median progression-free survival (PFS) (baseline ALP ≤ 150 IU/L): 6.9 months | Hazard Ratio (baseline ALP ≤ 150 IU/L): 0.63 | Risk Benefit (baseline ALP ≤ 150 IU/L): 37% | Median progression-free survival (PFS) (baseline ALP ≤ 200 IU/L): 6.9 months | Hazard Ratio (baseline ALP ≤ 200 IU/L): 0.73 | Risk Benefit (baseline ALP ≤ 200 IU/L): 27% | Median progression-free survival (PFS) [32]: 7.0 months | Hazard Ratio [32]: 0.62 | Risk Benefit [32]: 38% | Median progression-free survival (PFS) [33]: 6.9 months | Hazard Ratio [33]: 0.63 | Risk Benefit [33]: 37% | Median progression-free survival (PFS) [34]: 6.2 months | Hazard Ratio [34]: 0.87 | Median progression-free survival (PFS) [35]: 6.1 months | Hazard Ratio [35]: 0.86 | Median progression-free survival (PFS) [36]: 5.8 months | Hazard Ratio [36]: 0.90 | Median progression-free survival (PFS) [37]: 5.8 months | Hazard Ratio [37]: 0.94 | Median progression-free survival (PFS) [38]: 5.8 months | Hazard Ratio [38]: 0.97 | Median progression-free survival (PFS) [39]: 7.7 months | Hazard Ratio [39]: 0.52 | Risk Benefit [39]: 48% | Median progression-free survival (PFS) [40]: 6.9 months | Hazard Ratio [40]: 0.66 | Risk Benefit [40]: 34% | Median progression-free survival (PFS) [41]: 7.0 months | Hazard Ratio [41]: 0.62 | Risk Benefit [41]: 38% | Median progression-free survival (PFS) (baseline ALP ≤ 250 IU/L): 6.3 months | Hazard Ratio (baseline ALP ≤ 250 IU/L): 0.79 | Risk Benefit (baseline ALP ≤ 250 IU/L): 21%
